Results: patent publication US9150509B2, “Lipoic acid derivatives” (Cornerstone Pharmaceuticals, Inc., priority 2007, dated 2015)
Like-named read-outs stand apart in the source and are kept apart here.

How the values were obtained:
Type in all cases: cell-based
human melanoma A2058 = assay: Anti-tumor activity, cell growth inhibition by CellTiter Blue Assay, A2058; details: read-out: IC50 A2058 (melanoma)
Method: (§1) Three human tumor cells were used in this investigation, and they were human H460 NSCLC, human melanoma A2058 and human […] HT1080 cell lines. Cells were originally obtained from American Type Cell Culture (ATCC) and have been used for experiments at passages below 30. All tumor cells were maintained at 37° C. in a humidified 5% CO2 atmosphere in T75 tissue culture flasks containing 25 mL of Roswell Park Memorial Institute (RPMI) 1640, with 10% fetal bovine serum (FBS) and 2 mM L-glutamine. The tumor cells were split at a ratio of 1:10 every 4-5 days by trypsinization and resuspended in fresh medium in a new flask. Cells were harvested for experiments at 70-90% confluency.
(§2) The culture media used for all cell lines in this study was Roswell Park Memorial Institute (RPMI) 1640, with 10% fetal bovine serum (FBS), 2 mM L-glutamine, 100 IU/mL penicillin and 100 μg/ml streptomycin. The test compounds used were generally prepared at a concentration higher than 20 mM and tested at 1 mM in cultured media for precipitation, 1 mM is the highest tested concentration of the test compounds.
(§3) The anti-tumor activities of the test compounds were assessed by exposing the tumor cells to various concentrations of test compounds (or vehicle) or not treated with the test compounds or vehicle. The concentration ranges of the test compounds evaluated in this study were 0-1 mM. The duration of treatment of the tumor cells was 48 hours. Subsequent to treatment with the test articles, the number of viable tumor cells was determined, and the concentrations of the test agents that induced 50% of cell growth inhibition (IC50) were derived and compared.
(§4) Cell Seeding for Experiments: To cells grown to 70-90% confluency, medium was removed and the cell monolayers were washed briefly by adding 5 mL of phosphate buffer saline (PBS) followed by aspiration. Trypsin-ethylenediaminetetraacetic acid (EDTA) (4 mL) was added to each, flask, and the flask was placed in the tissue culture incubator for 5 minutes. Serum-containing medium (10 mL) was added to halt the enzymatic reactions, and cells were disaggregated, by repeated resuspension with serological pipet. The cell-containing medium (20 μL) was added to 20 μL of 0.4% Trypan Blue solution, mixed, and 10 μL of this cell-containing mixture was placed in a chamber of a hemocytometer. The number of viable cells was determined by counting the number of viable cells (cells that excluded trypan blue) in the 4 corner squares of the hemocytometer chamber at 100× magnification. The volume of cells needed was determined by the following formula:
(§5) The number of cells targeted for the study was 4×10^3 per well in 100 μL of medium. The actual number of cells were counted and seeded in the wells of a 96 well-plate. The cells were then incubated for ˜24 hrs before they were used for testing of anti-tumor activities of the test compounds and vehicle. Cell monolayer was confluent or subconfluent for some cell lines at the day of the experiment.
(§6) Treatment with Test Compounds and Vehicle: On the day of testing, 5 μL of a specific concentration of the test compounds (or vehicle) were added to the wells. After exposure to the test articles (or vehicle) for 48 hours, the number of viable cells in the wells was determined (see next section), and the percent of cells relative to no treatment was calculated.
(§7) Determination of the Number of Viable Cells by the CellTiter Blue Assay: The number of viable cells was determined using the CellTiter Blue Assay in this study. Specifically, reagents were allowed to come to room temperature according to instructions from Protoega, Inc. (Madison, Wis.). CellTiter Blue reagent was added with the 12-channel Eppendorf pipettor, 20 μL per well. The cells were then incubated at 37° C. for 1-4 hrs in cell culture incubator. Fluorescence intensity, which is proportional to the quantity of viable cells, was read at 530/590 nm using FLUOstar optima fluorescence plate reader (BMG technologies, Germany). […]

human H460 NSCLC = assay: Anti-tumor activity, cell growth inhibition by CellTiter Blue Assay, H460; details: read-out: IC50 H460 (NSCLC)
Method: as §1, §2, §3, §4, §5, §6, §7

[1] = test system: human adenocarcinoma HT1080; assay: Anti-tumor activity, cell growth inhibition by CellTiter Blue Assay, HT1080; details: read-out: IC50 HT1080
Method: as §1, §2, §3, §4, §5, §6, §7

[2] = Homo sapiens, A2058, 48 h, A2058 cells, 48 hours treatment, 0-1 mM, viable cells by CellTiter Blue
[3] = Homo sapiens, NCI-H460, 48 h, H460 cells, 48 hours treatment, 0-1 mM, viable cells by CellTiter Blue
[4] = Homo sapiens, HT-1080, 48 h, HT1080 cells, 48 hours treatment, 0-1 mM, viable cells by CellTiter Blue
[5] = A2058 cells, 48 hours treatment, 0-1 mM, viable cells by CellTiter Blue
[6] = H460 cells, 48 hours treatment, 0-1 mM, viable cells by CellTiter Blue
[7] = HT1080 cells, 48 hours treatment, 0-1 mM, viable cells by CellTiter Blue

| Structure (SMILES) | IC50 (human melanoma A2058; [2]) [µM] | IC50 (human H460 NSCLC; [3]) [µM] | IC50 [1, 4] [µM] | other results |
| --- | --- | --- | --- | --- |
| O=C(O)CCCCC(CCSc1ccnc2ccccc12)Sc1ccnc2ccccc12 (stereo not drawn) [F] |  |  |  | IC50 (human melanoma A2058; Homo sapiens, A2058, 48 h): 51 ± 4 µM; IC50 (human H460 NSCLC; Homo sapiens, NCI-H460, 48 h): 70 ± 13 µM; IC50 ([1]; Homo sapiens, HT-1080, 48 h): 68 ± 20 µM |
| CCSC(CCS)CCCCC(=O)O (stereo not drawn) [H, 6-ethylmercapto-8-mercaptooctanoic acid] | 238 ± 2 | 282 ± 20 | 270 ± 4 |  |
| O=C(O)CCCCC(CCSSCc1ccccc1)SSCc1ccccc1 (stereo not drawn) [JJ] |  |  |  | IC50 (human melanoma A2058; [5]): 206 ± 55 µM; IC50 (human H460 NSCLC; [6]): 318 ± 20 µM; IC50 [1, 7]: 133 ± 2 µM |
| O=C(O)CCCCC1CCSC(c2ccncc2)S1 (stereo not drawn) [Q] |  |  |  | IC50 (human melanoma A2058; Homo sapiens, A2058, 48 h): 717 ± 11 µM |
| CCC(S)(CCCCC(=O)O)CC(S)c1ccccc1 (stereo not drawn) [Compound MM, 6-ethyl-8-phenyl-6,8-bismercaptooctanoic acid] | 346 ± 20 | 449 ± 1 | 421 ± 53 |  |
| O=C(O)CCCCC(CCSc1ccnc2cc(Cl)ccc12)Sc1ccnc2cc(Cl)ccc12 (stereo not drawn) [A] | 183 ± 3 | 127 ± 11 | 80 ± 8 |  |
| O=C(O)CCCCC(CCSCCc1ccccc1)SCCc1ccccc1 (stereo not drawn) [W] | 125 ± 3 | 167 ± 42 |  |  |
| O=C(O)CCCCC(CCSSCc1ccccc1)SSCc1ccccc1 (stereo not drawn) [KK] |  |  |  | IC50 (human melanoma A2058; [5]): 483 ± 180 µM; IC50 (human H460 NSCLC; [6]): 409 ± 69 µM; IC50 [1, 7]: 212 ± 52 µM |
| O=C(O)CCCCC(CCSCc1c(F)c(F)c(F)c(F)c1F)SCc1c(F)c(F)c(F)c(F)c1F (stereo not drawn) [X] | 59 ± 4 | 64 ± 4 | 60 ± 18 |  |
